# Results: patent US20140377340A1, “HLA-DR BINDING PEPTIDES AND THEIR USES” (priority 2007, published 2014)
# Legend:
# purified HLA DRB1*0901 = target: T1, purified HLA DRB1*0901 (Homo sapiens, UniProt P01903+P01911, A100R/A103E/D57H/D86V/F55Y/F60I/F76Y/I96F/K127E/L162R/M171V/P40D/Q125H/Q99R/R33Q/R42F/S133A/S66N/T210M/V115G/W38K/Y107V/Y59G/Y89S); assay: HLA-DR radioligand binding inhibition assay, DRB1*0901; conditions: IC50 nM purified HLA DRB1 *0901, purified HLA DRB1*0901
# T1 construct: purified from EBV transformed homozygous cell lines or single MHC allele transfected 721.221, C1R, or fibroblast lines; made in house
# Description: (§1) Instead, wells of an opaque white 96-well Optiplate (Packard) are coated with 3 μg (100 μl@ 30 μg/ml) of HLA-specific antibody (Ab) that “capture” complexes of radiolabeled MHC and unlabeled peptide transferred from the molecular binding assay plate in 100 μl of 0.05% NP40/PBS. After a 3-hour incubation period, the supernatant is decanted and scintillation fluid (Microscint 20) added. Captured complexes are then measured on a microplate scintillation and luminescence counter (TopCount NXTTM; Packard).
# (§2) HLA-DR purification. Fifteen distinct HLA-DR molecules were used in quantitative assays to measure the binding of peptides to solubilized HLA-DR molecules. […] Briefly, columns of inactivated Sepharose CL4B and Protein A Sepharose were used as pre-columns. HLA-DR molecules were captured by passage of lysates over LB3.1 monoclonal antibody (anti-HLA-DRA) columns. Antibody columns were washed with 10 mM Tris-HCL, pH8.0 with 1% (v/v) NP-40, followed by PBS containing 0.4% (w/v) n-octylglucoside.
# (§3) Briefly, 1-10 nM of radiolabeled peptide was co-incubated for 2 days at either room temperature or 37° C. with 1 μM to 1 nM purified HLA-DR molecules in the presence of a cocktail of protease inhibitors. Assays were performed at various pH conditions, ranging from pH 4 to pH 7. […] After incubation, the percentage of HLA-DR-bound radioactivity is determined by capturing HLA-DR/peptide complexes on Optiplates (Packard Instruments, Meriden, Conn.) coated with the LB3.1 antibody and determining bound counts per minute using the TopCount microscintillation counter (Packard Instruments).
# purified HLA DRB1*0404 = target: T2, purified HLA DRB1*0404 (Homo sapiens, UniProt P01903+P01911, A100R/A169T/F76Y/I96L/K127E/L162R/M171V/N62H/P40V/Q125Y/R42H/S133A/S149N/S66Y/V209L/W38E); assay: HLA-DR radioligand binding inhibition assay, DRB1*0404; conditions: IC50 nM purified HLA DRB1 *0404, purified HLA DRB1*0404
# T2 construct: purified from EBV transformed homozygous cell lines or single MHC allele transfected 721.221, C1R, or fibroblast lines; made in house
# Procedure, shortened: (§4)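 First, HLA-DR was purified from lysates on LB3.1 columns. Then 1 μM to 1 nM protein was incubated 2 days with 1-10 nM radiolabeled peptide at pH 4 to 7. Finally, complexes were captured for 3 hours and bound cpm determined.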
# purified HLA DRB1*1101 = target: T3, purified HLA DRB1*1101 (Homo sapiens, UniProt P01903+P01911, A100R/A169T/A87E/I96F/K41T/L162R/M171V/P40S/Q125H/Q178H/Q39Y/Q99D/R42S/S66Y/T262R/V115G/W38E); assay: HLA-DR radioligand binding inhibition assay, DRB1*1101; conditions: IC50 nM purified HLA DRB1 *1101, purified HLA DRB1*1101
# T3 construct: purified from EBV transformed homozygous cell lines or single MHC allele transfected 721.221, C1R, or fibroblast lines; made in house
# T3 sequence (P01903 26-254, other chains not shown): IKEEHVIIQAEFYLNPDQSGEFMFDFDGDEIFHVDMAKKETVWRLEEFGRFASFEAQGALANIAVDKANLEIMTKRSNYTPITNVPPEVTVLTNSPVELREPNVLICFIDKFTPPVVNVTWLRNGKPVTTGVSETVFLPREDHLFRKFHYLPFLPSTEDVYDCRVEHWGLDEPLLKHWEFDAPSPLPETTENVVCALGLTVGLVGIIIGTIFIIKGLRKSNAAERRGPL
# Procedure, shortened: as §4
# purified HLA DRB1*0701 = target: T4, purified HLA DRB1*0701 (Homo sapiens, UniProt P01903+P01911, A100R/A102G/A103Q/D57E/D86V/E43K/F76Y/K127E/L162R/M171V/P40G/Q125H/Q99D/R33Q/R42Y/R54Q/S133A/S66F/T210M/V115G/Y107V/Y59L/Y89S); assay: HLA-DR radioligand binding inhibition assay, DRB1*0701; conditions: IC50 nM purified HLA DRB1 *0701, purified HLA DRB1*0701
# T4 construct: purified from EBV transformed homozygous cell lines or single MHC allele transfected 721.221, C1R, or fibroblast lines; made in house
# Procedure, shortened: as §4
# purified HLA DRB1*0405 = target: T5, purified HLA DRB1*0405 (Homo sapiens, UniProt P01903+P01911, A100R/A169T/D86S/F76Y/I96L/K127E/L162R/M171V/N62H/P40V/Q125Y/R42H/S133A/S149N/S66Y/V115G/V209L/W38E); assay: HLA-DR radioligand binding inhibition assay, DRB1*0405; conditions: IC50 nM purified HLA DRB1 *0405, purified HLA DRB1*0405
# T5 construct: purified from EBV transformed homozygous cell lines or single MHC allele transfected 721.221, C1R, or fibroblast lines; made in house
# Procedure, shortened: as §4
# purified HLA DRB1*0802 = target: T6, purified HLA DRB1*0802 (Homo sapiens, UniProt P01903+P01911, A100R/A103L/A169T/F76Y/H45Y/I96F/K41T/L162R/M171V/P40S/Q125H/Q178H/Q39Y/Q99D/R218S/R42G/S66Y/V115G/W38E); assay: HLA-DR radioligand binding inhibition assay, DRB1*0802; conditions: IC50 nM purified HLA DRB1 *0802, purified HLA DRB1*0802
# T6 construct: purified from EBV transformed homozygous cell lines or single MHC allele transfected 721.221, C1R, or fibroblast lines; made in house
# Description: as §1
# as §2, with “n-octylglucoside. […] The pH was reduced to 8.0 and the eluates were concentrated by centrifugation in Centriprep 30 concentrators at 2000 rpm (Amicon, Beverly, Mass.).” for “n-octylglucoside.”
# as §3, with “Instruments). […] Competitor peptides are tested in 2-4 complete, independent experiments, at concentrations ranging from […].” for “Instruments).”
# purified HLA DRB1*1302 = target: T7, purified HLA DRB1*1302 (Homo sapiens, UniProt P01903+P01911, A100E/A169T/K41T/L162R/M171V/P40S/Q125H/Q178H/Q39Y/Q99D/R42S/S66N/T262R/V115G/W38E/Y61H); assay: HLA-DR radioligand binding inhibition assay, DRB1*1302
# T7 construct: purified from EBV transformed homozygous cell lines or single MHC allele transfected 721.221, C1R, or fibroblast lines; made in house
# Procedure, shortened: as §4
# purified HLA DRB3*0101 = target: T8, purified HLA DRB3*0101 (Homo sapiens, UniProt P01903+P79483); assay: HLA-DR radioligand binding inhibition assay, DRB3*0101; conditions: IC50 nM purified HLA DRB3 *0101, purified HLA DRB3*0101
# T8 construct: purified from EBV transformed homozygous cell lines or single MHC allele transfected 721.221, C1R, or fibroblast lines; made in house
# Description: as §1
# as §2, with “n-octylglucoside. […] The pH was reduced to 8.0 and the eluates were concentrated by centrifugation in Centriprep 30 concentrators at 2000 rpm (Amicon, Beverly, Mass.).” for “n-octylglucoside.”
# as §3, with “Instruments). […] Competitor peptides are tested in 2-4 complete, independent experiments, at concentrations ranging from […].” for “Instruments).”
# purified HLA DRB1*1201 = target: T9, purified HLA DRB1*1201 (Homo sapiens, UniProt P01903+P01911, A100R/A169T/D57E/D86V/F55L/H45Y/K41T/L162R/M171V/P40S/Q125H/Q178H/Q39Y/Q99D/R42G/S66L/T262R/V114A/V67L/W38E/Y59H/Y61H/Y89S); assay: HLA-DR radioligand binding inhibition assay, DRB1*1201
# T9 construct: purified from EBV transformed homozygous cell lines or single MHC allele transfected 721.221, C1R, or fibroblast lines; made in house
# Description: as §1
# as §2, with “n-octylglucoside. […] The pH was reduced to 8.0 and the eluates were concentrated by centrifugation in Centriprep 30 concentrators at 2000 rpm (Amicon, Beverly, Mass.).” for “n-octylglucoside.”
# as §3, with “Instruments). […] Competitor peptides are tested in 2-4 complete, independent experiments, at concentrations ranging from […].” for “Instruments).”
# purified HLA DRB5*0101 = target: T10, purified HLA DRB5*0101 (Homo sapiens, UniProt P01903+Q30154); assay: HLA-DR radioligand binding inhibition assay, DRB5*0101; conditions: IC50 nM purified HLA DRB5 *0101, purified HLA DRB5*0101
# T10 construct: purified from EBV transformed homozygous cell lines or single MHC allele transfected 721.221, C1R, or fibroblast lines; made in house
# Procedure, shortened: as §4
compound,measurement,setting,value
CC[C@H](C)[C@H](NC(=O)[C@H](CS)NC(=O)[C@H](CC(C)C)NC(=O)[C@H](CCCCN)NC(=O)[C@H](CCC(=O)O)NC(=O)[C@H](C)NC(=O)[C@@H](NC(=O)[C@H](CC(C)C)NC(=O)[C@@H]1CCCN1C(=O)[C@@H](NC(=O)[C@@H](N)[C@@H](C)O)[C@@H](C)CC)[C@@H](C)O)C(=O)N[C@@H](Cc1ccc(O)cc1)C(=O)N[C@H](C(=O)N[C@@H](CC(=O)O)C(=O)N[C@@H](CC(N)=O)C(=O)O)[C@@H](C)O [Peptide 1622.01],IC50,purified HLA DRB1*0901,> 20000 nM
same,IC50,purified HLA DRB1*0404,> 20000 nM
same,IC50,purified HLA DRB1*1101,> 20000 nM
same,IC50,purified HLA DRB1*0701,> 20000 nM
same,IC50,purified HLA DRB1*0405,> 20000 nM
same,IC50,purified HLA DRB1*0802,> 20000 nM
same,IC50,purified HLA DRB1*1302,> 20000 nM
same,IC50,purified HLA DRB3*0101,> 20000 nM
same,IC50,purified HLA DRB1*1201,> 20000 nM
CC[C@H](C)[C@H](NC(=O)[C@@H](NC(=O)[C@H](Cc1c[nH]cn1)NC(=O)[C@@H](N)CC(C)C)C(C)C)C(=O)N[C@@H](CCCCN)C(=O)N[C@@H](CO)C(=O)N[C@@H](CC(=O)O)C(=O)N[C@@H](CC(C)C)C(=O)N[C@H](C(=O)N[C@@H](CC(N)=O)C(=O)N[C@@H](CCC(=O)O)C(=O)N[C@@H](CCC(=O)O)C(=O)N[C@@H](C)C(=O)N[C@H](C(=O)NCC(=O)O)[C@@H](C)O)C(C)C [Peptide 9019.0005],IC50,purified HLA DRB1*0901,> 20000 nM
same,IC50,purified HLA DRB1*0701,3890 nM
same,IC50,purified HLA DRB5*0101,> 20000 nM
same,IC50,purified HLA DRB1*0405,37 nM
same,IC50,purified HLA DRB1*0802,> 20000 nM
same,IC50,purified HLA DRB3*0101,> 20000 nM
same,IC50,purified HLA DRB1*1201,> 20000 nM
